Results published in US8691815B2, “Substituted oxindole derivatives, drugs containing said derivatives and the use thereof” (AbbVie Deutschland GmbH & Co. KG, priority 2005, dated 2014).
pKi: −log10 of the molar value. Where a name gives a salt, the structure may show the parent alone.

Molecular target: T1, human vasopressin V1b receptor (Homo sapiens, UniProt P47901)
T1 construct: expressed in transfected cells; host or cells: CHO-K1 (cell line hV1b-3H2_CHO), membrane preparation
T1 sequence (P47901 1-424): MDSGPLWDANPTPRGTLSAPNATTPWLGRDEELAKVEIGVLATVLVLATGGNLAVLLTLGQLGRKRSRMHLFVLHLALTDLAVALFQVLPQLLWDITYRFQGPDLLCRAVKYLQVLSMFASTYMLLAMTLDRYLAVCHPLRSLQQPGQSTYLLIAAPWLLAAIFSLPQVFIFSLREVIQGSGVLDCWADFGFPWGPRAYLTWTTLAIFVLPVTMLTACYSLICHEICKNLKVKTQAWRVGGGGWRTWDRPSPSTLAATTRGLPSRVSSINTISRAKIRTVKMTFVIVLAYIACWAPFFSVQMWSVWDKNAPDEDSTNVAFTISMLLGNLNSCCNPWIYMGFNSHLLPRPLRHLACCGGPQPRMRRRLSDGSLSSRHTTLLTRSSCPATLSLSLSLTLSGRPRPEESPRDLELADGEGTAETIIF
Experiment: Vasopressin V1b receptor binding assay
Settings: membranes from CHO-K1 cells with stably expressed human V1b receptors, displacement of 1.5 nM 3H-AVP
Experimental: Vasopressin V1b Receptor Binding Assay:
The test substances were dissolved in a concentration of 10^−2 M in DMSO (dimethyl sulfoxide) and further diluted to 5×10^−4 M to 5×10^−9 M in DMSO. This series of DMSO predilutions was diluted 1:10 with assay buffer. The substance concentration was again diluted 1:5 in the assay mixture (2% DMSO in the mixture).
The membrane pellet was again homogenized and centrifuged as described and then taken up in 50 mM Tris-HCl, pH 7.4, homogenized and stored in aliquots frozen in liquid nitrogen at −190° C.
The incubation buffer was: 50 mM Tris, 10 mM MgCl2, 0.1% BSA, pH 7.4.
The nonspecific binding was determined with 1 uM AVP (Bachem # H1780). All determinations were carried out as triplicate determinations. After incubation (60 minutes at room temperature), the free radioligand was removed by vacuum filtration (Skatron cell harvester 7000) through Whatman GF/B glass fiber filter mats, and the filters were transferred into scintillation vials. The liquid scintillation measurement took place in a Tricarb model 2000 or 2200CA instrument (Packard). Conversion of the measured cpm into dpm was carried out with the aid of a standard quench series.
The binding parameters were calculated by nonlinear regression in SAS.

Molecule | pKi
COc1cc(CN2CCNCC2)ccc1C1(N2CCC[C@H]2C(=O)N(C)C)C(=O)N(S(=O)(=O)c2ccc(C#N)cc2)c2ccc(Cl)cc21 (stereo partly drawn) [Example 99, (S)-1-[5-Chloro-1-(4-cyanobenzenesulfonyl)-3-(2-methoxy-4-piperazin-1-ylmethyl-phenyl)-2-oxo-2,3-dihydro-1H-indol-3-yl]pyrrolidine-2-dimethylcarboxamide, trifluoroacetic acid salt] | > 9.00
COc1ccc(S(=O)(=O)N2C(=O)C(c3cc(CN(C)C)ccc3OC)(N3CCC[C@H]3C(=O)N(C)C)c3cc(Cl)ccc32)c(OC)c1 (stereo partly drawn) [Example 24, (S)-1-[5-Chloro-1-(2,4-dimethoxybenzenesulfonyl)-3-(5-dimethylaminomethyl-2-methoxyphenyl)-2-oxo-2,3-dihydro-1H-indol-3-yl]pyrrolidine-2-dimethylcarboxamide, trifluoroacetic acid salt] | > 9.00
COc1ccc(S(=O)(=O)N2C(=O)C(c3ccc(CN(C)CCN(C)C)cc3OC)(N3CCC[C@H]3C(=O)N(C)C)c3cc(Cl)ccc32)c(OC)c1 (stereo partly drawn) [Example 12, (S)-1-[5-Chloro-1-(2,4-dimethoxybenzenesulfonyl)-3-(4-{[(2-dimethylaminoethyl)-methylamino]methyl}-2-methoxyphenyl)-2-oxo-2,3-dihydro-1H-indol-3-yl]pyrrolidine-2-dimethylcarboxamide] | 8.00 to 9.00
COc1ccc(CN2CCCC2)cc1C1(N2CCC[C@H]2C(=O)N(C)C)C(=O)N(S(=O)(=O)c2ccc(C#N)cc2)c2ccc(Cl)cc21 (stereo partly drawn) [Example 96, (S)-1-[5-Chloro-1-(4-cyanobenzenesulfonyl)-3-(2-methoxy-5-pyrrolidin-1-ylmethyl-phenyl)-2-oxo-2,3-dihydro-1H-indol-3-yl]pyrrolidine-2-dimethylcarboxamide] | > 9.00
CCN(C)Cc1ccc(C2(N3CCC[C@H]3C(=O)N(C)C)C(=O)N(S(=O)(=O)c3ccc(OC)cc3)c3ccc(Cl)cc32)c(OC)c1 (stereo partly drawn) [Example 84, (S)-1-[5-Chloro-3-{4-[(ethylmethylamino)methyl]-2-methoxyphenyl}-1-(4-methoxy-benzenesulfonyl)-2-oxo-2,3-dihydro-1H-indol-3-yl]pyrrolidine-2-dimethylcarboxamide, trifluoroacetic acid salt] | > 9.00
COc1ccc(S(=O)(=O)N2C(=O)C(c3ccc(CN4CCOCC4)cc3OC)(N3CCC[C@H]3C(=O)N(C)C)c3cc(Cl)ccc32)c(OC)c1 (single isomer, unassigned) [Example 10] | 7.00 to 8.00
COc1ccc(CN(C)C)cc1C1(N2CCC[C@H]2C(=O)N(C)C)C(=O)N(S(=O)(=O)c2ccc(C#N)cc2)c2ccc(Cl)cc21 (stereo partly drawn) [Example 95, (S)-1-[5-Chloro-1-(4-cyanobenzenesulfonyl)-3-(5-dimethylaminomethyl-2-methoxy-phenyl)-2-oxo-2,3-dihydro-1H-indol-3-yl]pyrrolidine-2-dimethylcarboxamide] | 8.00 to 9.00
(S)-1-[3-(4-Aminomethyl-2-methoxyphenyl)-5-chloro-1-(4-fluorobenzenesulfonyl)-2-oxo-2,3-dihydro-1H-indol-3-yl]pyrrolidine-2-dimethylcarboxamide, trifluoroacetic acid salt [Example 75] | 7.00 to 8.00
(S)-2-({5-Chloro-1-(2,4-dimethoxybenzenesulfonyl)-3-[2-methoxy-4-(4-methyl-piperazin-1-ylmethyl)phenyl]-2-oxo-2,3-dihydro-1H-indol-3-yl}methylamino)-N,N-dimethyl-propionamide [Example 15] | > 9.00
COc1ccc(S(=O)(=O)N2C(=O)C(c3ccc(CN4CCCC4)cc3OC)(N3CCC[C@H]3C(=O)N(C)C)c3ccccc32)cc1 (stereo partly drawn) [Example 91, (S)-1-[1-(4-Methoxybenzenesulfonyl)-3-(2-methoxy-4-pyrrolidin-1-ylmethylphenyl)-2-oxo-2,3-dihydro-1H-indol-3-yl]pyrrolidine-2-dimethylcarboxamide, trifluoroacetic acid salt] | 8.00 to 9.00
COc1ccc(S(=O)(=O)N2C(=O)C(c3ccc(CN4CCCCC4)cc3OC)(N3CCC[C@H]3C(=O)N(C)C)c3cc(Cl)ccc32)cc1 (stereo partly drawn) [Example 83, (S)-1-[5-Chloro-1-(4-methoxybenzenesulfonyl)-3-(2-methoxy-4-piperidin-1-ylmethyl-phenyl)-2-oxo-2,3-dihydro-1H-indol-3-yl]pyrrolidine-2-dimethylcarboxamide, trifluoroacetic acid salt] | > 9.00
COc1cc(CN2CCCC2)ccc1C1(N2CCC[C@H]2C(=O)N(C)C)C(=O)N(S(=O)(=O)c2ccc(Cl)cc2)c2ccc(Cl)cc21 (stereo partly drawn) [Example 4, (S)-1-[5-Chloro-1-(4-chlorobenzenesulfonyl)-3-(2-methoxy-4-pyrrolidin-1-ylmethyl-phenyl)-2-oxo-2,3-dihydro-1H-indol-3-yl]pyrrolidine-2-dimethylcarboxamide, trifluoroacetic acid salt] | > 9.00
COc1ccc(CNC(C)C)cc1C1(N2CCC[C@H]2C(=O)N(C)C)C(=O)N(S(=O)(=O)c2ccc(C#N)cc2)c2ccc(Cl)cc21 (stereo partly drawn) [Example 101, (S)-1-[5-Chloro-1-(4-cyanobenzenesulfonyl)-3-(5-isopropylaminomethyl-2-methoxy-phenyl)-2-oxo-2,3-dihydro-1H-indol-3-yl]pyrrolidine-2-dimethylcarboxamide, trifluoroacetic acid salt] | > 9.00
COc1cc(CN2CCN(C)CC2)ccc1C1(N2CCC[C@H]2C(=O)N(C)C)C(=O)N(S(=O)(=O)c2ccc(C#N)cc2)c2ccc(Cl)cc21 (stereo partly drawn) [Example 80, (S)-1-{5-Chloro-1-(4-cyanobenzenesulfonyl)-3-[2-methoxy-4-(4-methylpiperazin-1-ylmethyl)phenyl]-2-oxo-2,3-dihydro-1H-indol-3-yl}pyrrolidine-2-carboxylic acid dimethylamide, trifluoroacetic acid salt] | > 9.00
COc1ccc(S(=O)(=O)N2C(=O)C(c3ccc(CN4CCN(C)CC4)cc3OC)(N3CCC[C@H]3C(=O)N(C)C)c3cc(Cl)ccc32)c(OC)c1 (stereo partly drawn) [Example 9, (S)-1-{5-Chloro-1-(2,4-dimethoxybenzenesulfonyl)-3-[2-methoxy-4-(4-methyl-piperazin-1-ylmethyl)phenyl]-2-oxo-2,3-dihydro-1H-indol-3-yl}pyrrolidine-2-dimethylcarboxamide] | 8.00 to 9.00
COc1ccc(S(=O)(=O)N2C(=O)C(c3cc(CN(C)CCCN(C)C)ccc3OC)(N3CCC[C@H]3C(=O)N(C)C)c3cc(Cl)ccc32)cc1 (stereo partly drawn) [Example 23, (S)-1-[5-Chloro-3-(5-{[(3-dimethylaminopropyl)methylamino]methyl}-2-methoxy-phenyl)-1-(4-methoxybenzenesulfonyl)-2-oxo-2,3-dihydro-1H-indol-3-yl]pyrrolidine-2-dimethylcarboxamide, trifluoroacetic acid salt] | > 9.00
COc1ccc(S(=O)(=O)N2C(=O)C(c3ccc(CN4CCN(C(C)=O)CC4)cc3OC)(N3CCC[C@H]3C(=O)N(C)C)c3cc(Cl)ccc32)c(OC)c1 (stereo partly drawn) [Example 11, (S)-1-[3-[4-(4-Acetylpiperazin-1-ylmethyl)-2-methoxyphenyl]-5-chloro-1-(2,4-dimethoxy-benzenesulfonyl)-2-oxo-2,3-dihydro-1H-indol-3-yl]pyrrolidine-2-dimethylcarboxamide] | 7.00 to 8.00
COc1ccc(S(=O)(=O)N2C(=O)C(c3ccc(CN4CCN(C)CC4)cc3OC)(N3CCC[C@H]3C(=O)N(C)C)c3cc(Cl)ccc32)cc1 (stereo partly drawn) [Example 69, (S)-1-{5-Chloro-1-(4-methoxybenzenesulfonyl)-3-[2-methoxy-4-(4-methylpiperazin-1-ylmethyl)phenyl]-2-oxo-2,3-dihydro-1H-indol-3-yl}pyrrolidine-2-dimethylcarboxamide, trifluoroacetic acid salt] | > 9.00
COc1ccc(S(=O)(=O)N2C(=O)C(c3cc(CN4CCCCC4)ccc3OC)(N3CCC[C@H]3C(=O)N(C)C)c3cc(Cl)ccc32)cc1 (stereo partly drawn) [Example 19, (S)-1-[5-Chloro-1-(4-methoxybenzenesulfonyl)-3-(2-methoxy-5-piperidin-1-ylmethyl-phenyl)-2-oxo-2,3-dihydro-1H-indol-3-yl]pyrrolidine-2-dimethylcarboxamide, trifluoroacetic acid salt] | > 9.00
COc1ccc(S(=O)(=O)N2C(=O)C(c3cc(CN4CCCCC4)ccc3OC)(N3CCC[C@H]3C(=O)N(C)C)c3cc(Cl)ccc32)c(OC)c1 (stereo partly drawn) [Example 26, (S)-1-[5-Chloro-1-(2,4-dimethoxybenzenesulfonyl)-3-(2-methoxy-5-piperidin-1-yl-methylphenyl)-2-oxo-2,3-dihydro-1H-indol-3-yl]pyrrolidin-2-dimethylcarboxamide trifluoroacetic acid salt] | > 9.00
